*1 amine or outer side, *2 acyl side, *3 side chain or, on linkers, in order; H or OH if unused. Where a SMILES comes first, the peptide text is derived from it. Side-chain parts run from the residue outwards. [ ]: non-standard residue; d: D form. The star is where a group is joined. C18 diacid = O=C(O)CCCCCCCCCCCCCCCCC(=O)*; γGlu = O=C(O)[C@H](CCC(=O)[*:2])N[*:1]; Desaminohistidyl = O=C(CCc1c[nH]cn1)*; Ac4c = NC1(C(=O)O)CCC1; AEEA = NCCOCCOCC(=O)O
How the values were obtained:
human GLP-1 receptor [1] = biological target: T1, human GLP-1 receptor (Homo sapiens, UniProt P43220); assay: Assay (I)(a): GLP-1 receptor potency, CRE luciferase reporter gene assay in BHK cells; type: cell-based; conditions: BHK cells expressing human GLP-1 receptor, read-out: EC50 GLP-1R
T1 construct: expressed in transfected cells; host or cells: membranes of BHK cells, parent line BHKTS13, clone FCW467-12A
T1 sequence (P43220 24-463): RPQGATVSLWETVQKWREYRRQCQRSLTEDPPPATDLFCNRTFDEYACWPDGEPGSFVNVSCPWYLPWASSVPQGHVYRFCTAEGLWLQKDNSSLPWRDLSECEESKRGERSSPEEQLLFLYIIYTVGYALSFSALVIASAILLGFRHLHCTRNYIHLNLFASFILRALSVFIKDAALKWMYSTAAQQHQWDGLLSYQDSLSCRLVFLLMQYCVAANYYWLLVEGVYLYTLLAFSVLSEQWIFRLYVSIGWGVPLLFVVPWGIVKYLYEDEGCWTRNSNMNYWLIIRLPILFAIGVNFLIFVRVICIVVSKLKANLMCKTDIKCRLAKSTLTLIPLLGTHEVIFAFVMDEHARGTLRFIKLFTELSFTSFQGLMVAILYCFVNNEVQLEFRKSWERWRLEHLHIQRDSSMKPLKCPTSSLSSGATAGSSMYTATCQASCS
Protocol: Assay (I): GLP-1 and Glucagon Receptor Potency The purpose of this example was to test the activity or potency, of the GLP-1 derivatives of the invention, in vitro. The in vitro potency is the measure of human GLP-1 receptor (GLP-1R) or glucagon receptor (glucagonR) activation, respectively, in a whole cell assay. In vitro potency was determined by measuring the cellular response of human GLP-1 or glucagon receptor activation, respectively, in a reporter gene assay. The assay was performed in a BHK cell line that stably expresses either the human GLP-1 receptor or the human glucagon receptor and comprises the DNA for the cAMP response element (CRE) coupled to a promoter and the gene for firefly luciferase (CRE luciferase). […] When assay incubation was completed, the luciferase substrate (luciferin) was added and the enzyme converted luciferin to oxyluciferin and produces bioluminescence. The luminescence was measured as the readout for the assay. (a) GLP-1 Receptor Activation The cells used in this assay (clone FCW467-12A/KZ10-1) were BHK cells with BHKTS13 as a parent cell line. The cells were derived from a clone (FCW467-12A) that expresses the human GLP-1 receptor and were established by further transfection with CRE luciferase to obtain the current clone. The cells were cultured at 5% CO2 in DMEM medium with 10% FBS, 1×GlutaMAX, 1 mg/ml G418, 240 nM MTX (methotrexate) and 1% pen/strep (penicillin/streptomycin). They were aliquoted and stored in liquid nitrogen. Before each assay, an aliquot was taken up and washed three times in PBS before being suspended at the desired concentration in assay medium. For 96-well plates the suspension was made to give a final concentration of 5×10EE3 cells/well. The following chemicals were used in the assay: Pluronic F-68 (10%) (Gibco 2404), Ovalbumin (Sigma A5503), DMEM w/o phenol red (Gibco 11880-028), 1 M Hepes (Gibco 15630), Glutamax 100× (Gibco 35050) and steadylite plus (PerkinElmer 6016757). Assay Medium consisted of DMEM w/o phenol red, 10 mM Hepes, 1×GlutaMAX, 2% Ovalbumin and 0.2% Pluronic F-68. Cell stocks were thawed in a 37° C. water bath. Cells were washed three times in PBS. The cells were counted and adjusted to 5×10EE3 cells/50 μl (1×10EE5 cells/ml) in Assay Medium. A 50 μl aliquot of cells was transferred to each well in the assay plate. Stocks of the test compounds and reference compounds were diluted to a concentration of […] in Assay Medium. Compounds were diluted 10-fold to give the following concentrations: 2×10EE-6 M, 2×10EE-7 M, 2×10EE-8 M; 2×10EE-9 M, 2×10EE-10 M, 2×10EE-11 M, 2×10EE-12 M and 2×10EE-13 M. For each compound a blank assay medium control was also included. A 50 μl aliquot of compound or blank was transferred from the dilution plate to the assay plate. Compounds were tested at the following final concentrations: 1×10EE-6 M, 1×10EE-7 M, 1×10EE-8 M; 1×10EE-9 M, 1×10EE-10 M, 1×10EE-11 M and 1×10EE-12 M and 1×10EE-13 M. The assay plate was incubated for 3 h in a 5% CO2 incubator at 37° C. The assay plate was removed from the incubator and allowed to stand at room temperature for 15 min. A 100 μl aliquot of steadylite plus reagent was added to each well of the assay plate (reagent is light sensitive). Each assay plate was covered with aluminum foil to protect it from light and shaken for 30 min at room temperature. Each assay plate was read in a Perkin Elmer TopCount NXT instrument. The data from the TopCount instrument was transferred to GraphPad Prism software. The software performed a non-linear regression (log(agonist) vs response-Variable slope (four parameter)). EC50 values were calculated by the software and reported in pM.

human GLP-1 receptor [2] = biological target: T1, human GLP-1 receptor; assay: Assay (II)(a): GLP-1 receptor binding, [125I]GLP-1 displacement, SPA on BHK membranes; conditions: displacement of [125I]GLP-1, membranes with human GLP-1 receptor; read-out: IC50 GLP-1R
Protocol: Assay (II): GLP-1 and Glucagon Receptor Binding The purpose of this assay is to test the in vitro receptor binding activity of the GLP-1 derivatives of the invention. (a) GLP-1 Receptor Binding The GLP-1 receptor (GLP-1R) binding is a measure of the affinity of a derivative for the human GLP-1 receptor. The GLP-1 receptor binding of each derivatives were determined with competitive binding, displacing [^125I]GLP-1 bound to GLP-1 receptors expressed in cell membranes associated with wheat germ agglutinin (WGA) scintillation proximity assay (SPA) beads. Each derivative was added in a series of concentrations to isolated membranes comprising the human GLP-1 receptor and displacement of the labelled radioligand was monitored. The receptor binding was reported as the concentration at which half of the labelled ligand is displaced from the receptor, the IC^50 value. The following chemicals were used in the assay: MEM w/o phenol red (Gibco 11880-028), Pen/strep (Invitrogen 15140-122), G418 (Invitrogen 10131-027), 1 M Hepes (Gibco 15630), EDTA (Invitrogen 15575-038), PBS (Invitrogen 14190-094), fetal calf serum (Invitrogen 16140-071), EGTA, MgCl2 (Merck 1.05832.1000), Tween 20 (Amresco 0850C335), SPA particles (wheat germ agglutinin (WGA) SPA beads, Perkin Elmer RPNQ0001), [125I]-GLP-1]-(7-36)NH2 (produced in-house), OptiPlate™-96 (Perkin Elmer). Buffer 1 consisted of 20 mM Na-HEPES plus 10 mM EDTA and pH was adjusted to 7.4. Buffer 2 consisted of 20 mM Na-HEPES plus 0.1 mM EDTA and pH was adjusted to 7.4. Assay buffer consisted of 50 mM HEPES supplemented with 5 mM EGTA, 5 mM MgCl2, 0.005% Tween 20 and pH was adjusted to 7.4. A 0.02% albumin stock consisted of HSA dissolved at 0.02% (w/v) in assay buffer. The cells used in this assay (clone FCW467-12A) were BHK cells with BHKTS13 as a parent cell line. The cells express the human GLP-1 receptor. The cells were grown at 5% CO2 in DMEM, 10% fetal calf serum, 1% Pen/Strep (Penicillin/Streptomycin) and 1.0 mg/ml of the selection marker G418. To make a membrane preparation the cells were grown to approximately 80% confluence. The cells were washed twice in phosphate-buffered saline and harvested. The cells were pelleted using a brief centrifugation and the cell pellet was kept on ice. The cell pellet was homogenised with ULTRA-THURRAX dispersing instrument for 20-30 seconds in a suitable amount of buffer 1 (e.g., 10 ml). The homogenate was centrifuged for 15 minutes. The pellet was re-suspended (homogenised) in 10 ml buffer 2 and centrifuged. This step was repeated once more. The resulting pellet was re-suspended in buffer 2 and the protein concentration was determined. The membranes were aliquoted and stored at minus 80° C. • 1. For the receptor binding assay 50 μl of the assay buffer was added to each well of an assay plate. • 2. Test compounds were serially diluted to give the following concentrations: 8×10EE-7 M, 8×10EE-8 M, 8×10EE-9 M, 8×10EE-10 M, 8×10EE-11 M, 8×10EE-12 M and 8×10EE-13 M. Twenty-five μl were added to appropriate wells in the assay plate. • 3. Cell membrane aliquots were thawed and diluted to their working concentration. Fifty μl were added to each well in the assay plate. • 4. WGA SPA beads were suspended in assay buffer at 20 mg/ml. The suspension was diluted to 10 mg/ml in assay buffer just prior to addition to the assay plate. Fifty μl were added to each well in the assay plate. • 5. The incubation was started by adding 25 μl of 480 pM solution of [125I]-GLP-1]-(7-36)NH2 to each well of the assay plate. A 25 μl aliquot was reserved for measuring total counts/well. • 6. The assay plate was incubated for 2 h at 30° C. • 7. The assay plate was centrifuged for 10 min. • 8. The assay plate was read in a Perkin Elmer TopCount NXT instrument. Calculations The data from the TopCount instrument were transferred to GraphPad Prism software. The software averaged the values for the replicates and performed a non-linear regression. IC50 values were calculated by the software and reported in nM. […]

`CC[C@H](C)[C@H](NC(=O)[C@H](Cc1ccccc1)NC(=O)[C@H](CCC(=O)O)NC(=O)[C@H](CCCNC(=N)N)NC(=O)[C@H](C)NC(=O)[C@H](C)NC(=O)[C@H](CCC(N)=O)NC(=O)[C@H](CCCNC(=N)N)NC(=O)[C@H](CCC(=O)O)NC(=O)[C@H](CC(C)C)NC(=O)[C@H](Cc1ccc(O)cc1)NC(=O)[C@H](CCCCN)NC(=O)[C@H](CO)NC(=O)[C@H](Cc1ccc(O)cc1)NC(=O)[C@H](CC(=O)O)NC(=O)[C@H](CO)NC(=O)[C@@H](NC(=O)[C@H](Cc1ccccc1)NC(=O)[C@@H](NC(=O)CNC(=O)[C@H](Cc1c[nH]cn1)NC(=O)C1(NC(=O)CCc2c[nH]cn2)CCC1)[C@@H](C)O)[C@@H](C)O)C(=O)N[C@@H](C)C(=O)N[C@@H](Cc1c[nH]c2ccccc12)C(=O)N[C@@H](CC(C)C)C(=O)N[C@@H](CC(C)C)C(=O)N[C@@H](CCCCN)C(=O)N[C@@H](CCCCNC(=O)CC[C@H](NC(=O)COCCOCCNC(=O)CC[C@H](NC(=O)COCCOCCNC(=O)CC[C@H](NC(=O)COCCOCCNC(=O)CC[C@H](NC(=O)CC[C@H](NC(=O)CCCCCCCCCCCCCCCCC(=O)O)C(=O)O)C(=O)O)C(=O)O)C(=O)O)C(=O)O)C(N)=O` [Example 23, N^ε35-[(4S)-4-carboxy-4-[[2-[2-[2-[[(4S)-4-carboxy-4-[[2-[2-[2-[[(4S)-4-carboxy-4-[[2-[2-[2-[[(4S)-4-carboxy-4-[[(4S)-4-carboxy-4-(17-carboxyheptadecanoylamino)butanoyl]amino]butanoyl]amino]ethoxy]ethoxy]acetyl]amino]butanoyl]amino]ethoxy]ethoxy]acetyl]amino]butanoyl]amino]ethoxy]ethoxy]acetyl]amino]butanoyl]-[Imp7,Acb8,His9,Tyr16,Lys18,Arg22,Arg26,Leu33,Lys35]-GLP-1-(7-35)-peptide amide] (Desaminohistidyl-[Ac4c]HGTFTSDYSKYLERQAAREFIAWLLKK([γGlu-AEEA-γGlu-AEEA-γGlu-AEEA-γGlu-γGlu-C18 diacid])-NH2) gave an EC50 (human GLP-1 receptor [1]) of 7 pM and an IC50 (human GLP-1 receptor [2]) of 2300 pM.
`CC[C@H](C)[C@H](NC(=O)[C@H](Cc1ccccc1)NC(=O)[C@H](CCC(=O)O)NC(=O)[C@H](CCCNC(=N)N)NC(=O)[C@H](C)NC(=O)[C@H](C)NC(=O)[C@H](CCC(N)=O)NC(=O)[C@H](CCC(=O)O)NC(=O)[C@H](CCC(=O)O)NC(=O)[C@H](CC(C)C)NC(=O)[C@H](Cc1ccc(O)cc1)NC(=O)[C@H](CCCNC(=N)N)NC(=O)[C@H](CO)NC(=O)[C@H](Cc1ccc(O)cc1)NC(=O)[C@H](CC(=O)O)NC(=O)[C@H](CO)NC(=O)[C@@H](NC(=O)[C@H](Cc1ccccc1)NC(=O)[C@@H](NC(=O)CNC(=O)[C@H](Cc1c[nH]cn1)NC(=O)C1(NC(=O)CCc2c[nH]cn2)CCC1)[C@@H](C)O)[C@@H](C)O)C(=O)N[C@@H](C)C(=O)N[C@@H](Cc1c[nH]c2ccccc12)C(=O)N[C@@H](CC(C)C)C(=O)N[C@@H](CC(C)C)C(=O)N[C@@H](CCCNC(=N)N)C(=O)N[C@@H](CCCCNC(=O)CC[C@H](NC(=O)COCCOCCNC(=O)CC[C@H](NC(=O)COCCOCCNC(=O)CC[C@H](NC(=O)COCCOCCNC(=O)CC[C@H](NC(=O)CC[C@H](NC(=O)CCCCCCCCCCCCCCCCC(=O)O)C(=O)O)C(=O)O)C(=O)O)C(=O)O)C(=O)O)C(N)=O` [Example 22, N^ε35-[(4S)-4-carboxy-4-[[2-[2-[2-[[(4S)-4-carboxy-4-[[2-[2-[2-[[(4S)-4-carboxy-4-[[2-[2-[2-[[(4S)-4-carboxy-4-[[(4S)-4-carboxy-4-(17-carboxyheptadecanoylamino)butanoyl]amino]butanoyl]amino]ethoxy]ethoxy]acetyl]amino]butanoyl]amino]ethoxy]ethoxy]acetyl]amino]butanoyl]amino]ethoxy]ethoxy]acetyl]amino]butanoyl]-[Imp7,Acb8,His9,Tyr16,Arg18,Glu22,Arg26,Leu33,Arg34,Lys35]-GLP-1-(7-35)-peptide amide] (Desaminohistidyl-[Ac4c]HGTFTSDYSRYLEEQAAREFIAWLLRK([γGlu-AEEA-γGlu-AEEA-γGlu-AEEA-γGlu-γGlu-C18 diacid])-NH2) showed an EC50 (human GLP-1 receptor [1]) of 3 pM and an IC50 (human GLP-1 receptor [2]) of 900 pM.

From US9988430B2, “Stable GLP-1 based GLP-1/glucagon receptor co-agonists” (Novo Nordisk A/S, priority 2014, dated 2018)
